Reference: PMC10873978, “Novel tetrahydroisoquinolines as DHFR and CDK2 inhibitors: synthesis, characterization, anticancer activity and antioxidant properties” (BMC Chemistry, 2024)
Entries after “also recorded” stand apart in the source; their conditions may differ.

Key:
MCF7 cell line = assay: In vitro cytotoxic activity, MTT method, MCF7; assay type: cell-based, human; conditions: for IC50: Homo sapiens, MCF7, MCF7 cell line, MTT
How it was run: (§1)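 MTT assay: cells seeded at 10^5 cells/mL, grown 24 h at 37 °C to a monolayer, then exposed to serial tetrahydroisoquinoline concentrations at 37 °C. MTT (5 mg/mL stock) added for 1–5 h; OD read at 560 nm minus 620 nm background. Doxorubicin as positive control.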

[1] = DPPH scavenging antioxidant activity
How it was run: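 Samples dissolved in DMSO, diluted in ethanol, and mixed 1:1 with ethanolic DPPH (0.002 g/50 mL); kept 30 min in the dark. Absorbance read at 517 nm against ethanol blank, with ascorbic acid as reference; scavenging given as %, mean ± SD of three replicates.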

A549 cell line = assay: In vitro cytotoxic activity, MTT method, A549; conditions: for IC50: Homo sapiens, read-out: IC50 ± SD
How it was run: as §1

Eef2 kinase = Eef2 kinase (Homo sapiens, UniProt O00418); assay: Eef2 kinase inhibition; assay type: biochemical

CC(=O)C1C(c2ccc(N(C)C)cc2)c2c(C)nc(SCC(=O)Nc3ccc(Cl)cc3)c(C#N)c2CC1(C)O (centres unmarked) [Compound 7c, 2-[(7-Acetyl-4-cyano-1,6-dimethyl-6-hydroxy-8-(4-N,N-dimethylamino-phenyl)-,5,6,7,8-tetrahydroisoquinolin-3-yl)thio]-N-(4-chlorophenyl)acetamide]
IC50 (MCF7 cell line): 1491 ± 4 nM | Toxicity % (MCF7 cell line; MCF7, 0.0487 µMol): -0.6776% | Viability % (MCF7 cell line; MCF7, 0.0487 µMol): 100.4% | Toxicity % (MCF7 cell line; MCF7, 0.0975 µMol): -0.5335% | Viability % (MCF7 cell line; MCF7, 0.0975 µMol): 100.6% | Viability % (MCF7 cell line; MCF7, 0.195 µMol): 99.47% | Viability % (MCF7 cell line; MCF7, 0.391 µMol): 100.1634% | Toxicity % (MCF7 cell line; MCF7, 0.781 µMol): 8.333% | Viability % (MCF7 cell line; MCF7, 0.781 µMol): 91.67% | Toxicity % (MCF7 cell line; MCF7, 1.562 µMol): 36.68% | Viability % (MCF7 cell line; MCF7, 1.562 µMol): 63.32% | Toxicity % (MCF7 cell line; MCF7, 3.125 µMol): 65.48% | Viability % (MCF7 cell line; MCF7, 3.125 µMol): 34.52% | Toxicity % (MCF7 cell line; MCF7, 6.25 µMol): 86.36% | Viability % (MCF7 cell line; MCF7, 6.25 µMol): 13.64% | Toxicity % (MCF7 cell line; MCF7, 12.5 µMol): 80.15% | Viability % (MCF7 cell line; MCF7, 12.5 µMol): 19.85% | Toxicity % (MCF7 cell line; MCF7, 25 µMol): 96.77% | Viability % (MCF7 cell line; MCF7, 25 µMol): 3.227% | DPPH scavenging, inhibition (%) ([1]; 0.01 µg/mL): 77.90 ± 6.22% | DPPH scavenging, inhibition (%) ([1]; 0.05 µg/mL): 81.39 ± 4.99% | antioxidant activity compared with Vitamin C ([1]; DPPH): higher result than Vitamin C; also recorded: higher antioxidant activity than Vitamin C | Toxicity % (A549 cell line; A549, Conc. 0.04875 µMol): 3.457% | Viability % (A549 cell line; A549, Conc. 0.04875 µMol): 96.54% | Toxicity % (A549 cell line; A549, Conc. 0.0975 µMol): 4.658% | Viability % (A549 cell line; A549, Conc. 0.0975 µMol): 95.3422% | Toxicity % (A549 cell line; A549, Conc. 0.195 µMol): 6.193% | Viability % (A549 cell line; A549, Conc. 0.195 µMol): 93.81% | Toxicity % (A549 cell line; A549, Conc. 0.391 µMol): 33.41% | Viability % (A549 cell line; A549, Conc. 0.391 µMol): 66.59% | Toxicity % (A549 cell line; A549, Conc. 0.781 µMol): 51.48% | Viability % (A549 cell line; A549, Conc. 0.781 µMol): 48.52% | Toxicity % (A549 cell line; A549, Conc. 1.562 µMol): 68.05% | Viability % (A549 cell line; A549, Conc. 1.562 µMol): 31.95% | Toxicity % (A549 cell line; A549, Conc. 3.125 µMol): 77.2% | Viability % (A549 cell line; A549, Conc. 3.125 µMol): 22.8% | Toxicity % (A549 cell line; A549, Conc. 6.25 µMol): 90.57% | Viability % (A549 cell line; A549, Conc. 6.25 µMol): 9.428% | Toxicity % (A549 cell line; A549, Conc. 12.5 µMol): 95.94% | Viability % (A549 cell line; A549, Conc. 12.5 µMol): 4.063% | Toxicity % (A549 cell line; A549, Conc. 25 µMol): 97.44% | Viability % (A549 cell line; A549, Conc. 25 µMol): 2.564% | IC50 (A549 cell line): 496 ± 3 nM

CC(=O)c1ccc(NC(=O)CSc2nc(C)c3c(c2C#N)CC(C)(O)C(C(C)=O)C3c2ccc(N(C)C)cc2)cc1 (centres unmarked) [Compound 7d, 2-[(7-Acetyl-4-cyano-1,6-dimethyl-6-hydroxy-8-(4-N,N-dimethylamino-phenyl)-5,6,7,8-tetrahydroisoquinolin-3-yl)thio]-N-(4-acetylphenyl)acetamide]
IC50 (MCF7 cell line): 495 ± 2 nM | Toxicity % (MCF7 cell line; MCF7, 0.0487 µMol): 1.8855% | Viability % (MCF7 cell line; MCF7, 0.0487 µMol): 98.2255% | Toxicity % (MCF7 cell line; MCF7, 0.0975 µMol): 3.5566% | Viability % (MCF7 cell line; MCF7, 0.0975 µMol): 96.5544% | Toxicity % (MCF7 cell line; MCF7, 0.195 µMol): 5.106% | Viability % (MCF7 cell line; MCF7, 0.195 µMol): 94.89% | Toxicity % (MCF7 cell line; MCF7, 0.391 µMol): 28.72% | Viability % (MCF7 cell line; MCF7, 0.391 µMol): 71.28% | Toxicity % (MCF7 cell line; MCF7, 0.781 µMol): 52.53% | Viability % (MCF7 cell line; MCF7, 0.781 µMol): 47.47% | Toxicity % (MCF7 cell line; MCF7, 1.562 µMol): 65.69% | Viability % (MCF7 cell line; MCF7, 1.562 µMol): 34.31% | Toxicity % (MCF7 cell line; MCF7, 3.125 µMol): 76.63% | Viability % (MCF7 cell line; MCF7, 3.125 µMol): 23.37% | Toxicity % (MCF7 cell line; MCF7, 6.25 µMol): 94.04% | Viability % (MCF7 cell line; MCF7, 6.25 µMol): 5.964% | Toxicity % (MCF7 cell line; MCF7, 12.5 µMol): 96.65% | Viability % (MCF7 cell line; MCF7, 12.5 µMol): 3.35% | Toxicity % (MCF7 cell line; MCF7, 25 µMol): 96.73% | Viability % (MCF7 cell line; MCF7, 25 µMol): 3.268% | DPPH scavenging, inhibition (%) ([1]; 0.01 µg/mL): 48.08 ± 0.87% | DPPH scavenging, inhibition (%) ([1]; 0.05 µg/mL): 69.73 ± 0.73% | Toxicity % (A549 cell line; A549, Conc. 0.04875 µMol): 1.982% | Viability % (A549 cell line; A549, Conc. 0.04875 µMol): 98.02% | Toxicity % (A549 cell line; A549, Conc. 0.0975 µMol): 2.4569% | Viability % (A549 cell line; A549, Conc. 0.0975 µMol): 97.5431% | Toxicity % (A549 cell line; A549, Conc. 0.195 µMol): 3.708% | Viability % (A549 cell line; A549, Conc. 0.195 µMol): 96.29% | Toxicity % (A549 cell line; A549, Conc. 0.391 µMol): 36.8% | Viability % (A549 cell line; A549, Conc. 0.391 µMol): 63.2% | Toxicity % (A549 cell line; A549, Conc. 0.781 µMol): 53.89% | Viability % (A549 cell line; A549, Conc. 0.781 µMol): 46.11% | Toxicity % (A549 cell line; A549, Conc. 1.562 µMol): 70.45% | Viability % (A549 cell line; A549, Conc. 1.562 µMol): 29.55% | Toxicity % (A549 cell line; A549, Conc. 3.125 µMol): 77.08% | Viability % (A549 cell line; A549, Conc. 3.125 µMol): 22.92% | Toxicity % (A549 cell line; A549, Conc. 6.25 µMol): 86.79% | Viability % (A549 cell line; A549, Conc. 6.25 µMol): 13.21% | Toxicity % (A549 cell line; A549, Conc. 12.5 µMol): 92.98% | Viability % (A549 cell line; A549, Conc. 12.5 µMol): 7.022% | Toxicity % (A549 cell line; A549, Conc. 25 µMol): 96.61% | Viability % (A549 cell line; A549, Conc. 25 µMol): 3.393% | IC50 (A549 cell line): 446 ± 4 nM

CC(=O)C1C(c2ccc(N(C)C)cc2)c2c(C)nc3sc(C(=O)Nc4ccccc4)c(N)c3c2CC1(C)O (centres unmarked) [Compound 8a, 7-Acetyl-1-amino-5,8-dimethyl-8-hydroxy-6-(4-N,N-dimethylaminophenyl)-N-phenyl-6,7,8,9-tetrahydrothieno[2,3-c]isoquinoline-2-carboxamide]
IC50 (MCF7 cell line): 872 ± 3 nM | Toxicity % (MCF7 cell line; MCF7, Conc. 0.0487 µMol): -1.567% | Viability % (MCF7 cell line; MCF7, Conc. 0.0487 µMol): 101.5% | Toxicity % (MCF7 cell line; MCF7, Conc. 0.0975 µMol): -0.5332% | Viability % (MCF7 cell line; MCF7, Conc. 0.0975 µMol): 100.6% | Toxicity % (MCF7 cell line; MCF7, Conc. 0.195 µMol): -0.4085% | Viability % (MCF7 cell line; MCF7, Conc. 0.195 µMol): 100.4% | Toxicity % (MCF7 cell line; MCF7, Conc. 0.391 µMol): 8.047% | Viability % (MCF7 cell line; MCF7, Conc. 0.391 µMol): 91.95% | Toxicity % (MCF7 cell line; MCF7, Conc. 0.781 µMol): 34.56% | Viability % (MCF7 cell line; MCF7, Conc. 0.781 µMol): 65.44% | Toxicity % (MCF7 cell line; MCF7, Conc. 1.562 µMol): 65.28% | Viability % (MCF7 cell line; MCF7, Conc. 1.562 µMol): 34.72% | Toxicity % (MCF7 cell line; MCF7, Conc. 3.125 µMol): 87.21% | Viability % (MCF7 cell line; MCF7, Conc. 3.125 µMol): 12.79% | Toxicity % (MCF7 cell line; MCF7, Conc. 6.25 µMol): 94.16% | Viability % (MCF7 cell line; MCF7, Conc. 6.25 µMol): 5.842% | Toxicity % (MCF7 cell line; MCF7, Conc. 12.5 µMol): 96.9% | Viability % (MCF7 cell line; MCF7, Conc. 12.5 µMol): 3.105% | Toxicity % (MCF7 cell line; MCF7, Conc. 25 µMol): 97.43% | Viability % (MCF7 cell line; MCF7, Conc. 25 µMol): 2.574% | DPPH scavenging, inhibition (%) ([1]; 0.01 µg/mL): 14.22 ± 1.32% | DPPH scavenging, inhibition (%) ([1]; 0.05 µg/mL): 23.66 ± 2.12% | Toxicity % (A549 cell line; A549, Conc. 0.04875 µMol): 3.135% | Toxicity % (A549 cell line; A549, Conc. 0.0975 µMol): 3.679% | Toxicity % (A549 cell line; A549, Conc. 0.195 µMol): 4.221% | Viability % (A549 cell line; A549, Conc. 0.195 µMol): 95.78% | Toxicity % (A549 cell line; A549, Conc. 0.391 µMol): 10.77% | Viability % (A549 cell line; A549, Conc. 0.391 µMol): 89.23% | Toxicity % (A549 cell line; A549, Conc. 0.781 µMol): 39.61% | Viability % (A549 cell line; A549, Conc. 0.781 µMol): 60.39% | Toxicity % (A549 cell line; A549, Conc. 1.562 µMol): 53.57% | Viability % (A549 cell line; A549, Conc. 1.562 µMol): 46.43% | Toxicity % (A549 cell line; A549, Conc. 3.125 µMol): 74.67% | Viability % (A549 cell line; A549, Conc. 3.125 µMol): 25.33% | Toxicity % (A549 cell line; A549, Conc. 6.25 µMol): 88.24% | Viability % (A549 cell line; A549, Conc. 6.25 µMol): 11.76% | Toxicity % (A549 cell line; A549, Conc. 12.5 µMol): 96.69% | Viability % (A549 cell line; A549, Conc. 12.5 µMol): 3.314% | Toxicity % (A549 cell line; A549, Conc. 25 µMol): 97.95% | Viability % (A549 cell line; A549, Conc. 25 µMol): 2.051% | IC50 (A549 cell line): 1045 ± 6 nM

CCCCCCCCCCCCCCCCn1cc[n+](Cc2ccccc2)c1C.[I-] [NH125, reference compound]
%inh (Eef2 kinase; Eef2, conc 0.01 (log -2)): 20.1% | %inh (Eef2 kinase; Eef2, conc 0.1 (log -1)): 33.9% | %inh (Eef2 kinase; Eef2, conc 1 (log 0)): 62.7% | %inh (Eef2 kinase; Eef2, conc 10 (log 1)): 84.3% | %inh (Eef2 kinase; Eef2, conc 100 (log 2)): 92.6%
